Reference: US10681909B2, “Herbicidal triazoles” (FMC Corporation, priority 2014, dated 2020)

Assays:
barnyardgrass [1] = experiment: Test A preemergence; assay type: in vivo, Echinochloa crus-galli; settings: 0 to 100 scale (0 no effect, 100 complete control)
Method in brief: (§1)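 Plant seeds in loam soil blended with sand, then apply test chemical preemergence as a directed soil spray; in parallel, spray potted seedlings (one- to two-leaf, 2 to 10 cm) postemergence. Both treatments use a non-phytotoxic solvent mixture with surfactant.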

crabgrass, large [2] = experiment: Test A preemergence; assay type: in vivo, Digitaria sanguinalis; settings: 0 to 100 scale (0 no effect, 100 complete control)
Excerpt: (§2) Seeds of plant species selected from barnyardgrass (Echinochloa crus-galli), crabgrass, large (large crabgrass, Digitaria sanguinalis), kochia (Kochia scoparia), ragweed (common ragweed, Ambrosia elatior), foxtail, giant (giant foxtail, Setaria faberii), morningglory (Ipomoea spp.), pigweed (Amaranthus retroflexus), velvetleaf (Abutilon theophrasti), ryegrass, Italian (Italian ryegrass, Lolium multiflorum), wheat (Triticum aestivum), and corn (Zea mays) were planted into a blend of loam soil and sand and treated preemergence with a directed soil spray using test chemicals formulated in a non-phytotoxic solvent mixture which included a surfactant. At the same time, plants selected from these crop and weed species and also blackgrass (Alopecurus myosuroides), and galium (catchweed bedstraw, Galium aparine), were planted in pots containing the same blend of loam soil and sand and treated with postemergence applications of test chemicals formulated in the same manner. Plants ranged in height from 2 to 10 cm and were in the one- to two-leaf stage for the postemergence treatment. […] A dash (-) response means no test result.

foxtail, giant [3] = experiment: Test A preemergence; assay type: in vivo, Setaria faberii; settings: 0 to 100 scale (0 no effect, 100 complete control)
Method in brief: as §1

morningglory [4] = experiment: Test A preemergence; assay type: in vivo, Ipomoea spp.; settings: 0 to 100 scale (0 no effect, 100 complete control)
Excerpt: as §2

pigweed [5] = experiment: Test A preemergence; assay type: in vivo, Amaranthus retroflexus; settings: 0 to 100 scale (0 no effect, 100 complete control)
Method in brief: as §1

velvetleaf [6] = experiment: Test A preemergence; assay type: in vivo, Abutilon theophrasti; settings: 0 to 100 scale (0 no effect, 100 complete control)
Excerpt: as §2

wheat [7] = experiment: Test A preemergence; assay type: in vivo, Triticum aestivum; settings: 0 to 100 scale (0 no effect, 100 complete control)
Excerpt: as §2

corn [8] = experiment: Test A preemergence; assay type: in vivo, Zea mays; settings: 0 to 100 scale (0 no effect, 100 complete control)
Excerpt: as §2

barnyardgrass [9] = experiment: Test A postemergence; assay type: in vivo, Echinochloa crus-galli; settings: 0 to 100 scale (0 no effect, 100 complete control), approx. 10 d
Method in brief: as §1

crabgrass, large [10] = experiment: Test A postemergence; assay type: in vivo, Digitaria sanguinalis; settings: 0 to 100 scale (0 no effect, 100 complete control), approx. 10 d
Excerpt: as §2

foxtail, giant [11] = experiment: Test A postemergence; assay type: in vivo, Setaria faberii; settings: 0 to 100 scale (0 no effect, 100 complete control), approx. 10 d
Method in brief: as §1

morningglory [12] = experiment: Test A postemergence; assay type: in vivo, Ipomoea spp.; settings: 0 to 100 scale (0 no effect, 100 complete control), approx. 10 d
Excerpt: as §2

pigweed [13] = experiment: Test A postemergence; assay type: in vivo, Amaranthus retroflexus; settings: 0 to 100 scale (0 no effect, 100 complete control), approx. 10 d
Method in brief: as §1

velvetleaf [14] = experiment: Test A postemergence; assay type: in vivo, Abutilon theophrasti; settings: 0 to 100 scale (0 no effect, 100 complete control), approx. 10 d
Excerpt: as §2

wheat [15] = experiment: Test A postemergence; assay type: in vivo, Triticum aestivum; settings: 0 to 100 scale (0 no effect, 100 complete control), approx. 10 d
Method in brief: as §1

corn [16] = experiment: Test A postemergence; assay type: in vivo, Zea mays; settings: 0 to 100 scale (0 no effect, 100 complete control), approx. 10 d
Method in brief: as §1

rice = experiment: Test B flooded paddy test; assay type: in vivo, Oryza sativa; settings: applied to paddy water at 2-leaf stage, visual rating after 13 to 15 d, scale 0 (no effect) to 100 (complete control)
Excerpt: (§3) At time of treatment, test pots were flooded to 3 cm above the soil surface, treated by application of test compounds directly to the paddy water, and then maintained at that water depth for the duration of the test. Treated plants and controls were maintained in a greenhouse for 13 to 15 d, after which time all species were compared to controls and visually evaluated. […] A dash (-) response means no test result.

sedge, umbrella = experiment: Test B flooded paddy test; assay type: in vivo, Cyperus difformis; settings: applied to paddy water at 2-leaf stage, visual rating after 13 to 15 d, scale 0 (no effect) to 100 (complete control)
Excerpt: as §3

ducksalad = experiment: Test B flooded paddy test; assay type: in vivo, Heteranthera limosa; settings: applied to paddy water at 2-leaf stage, visual rating after 13 to 15 d, scale 0 (no effect) to 100 (complete control)
Excerpt: as §3

barnyardgrass [17] = experiment: Test B flooded paddy test; assay type: in vivo, Echinochloa crus-galli; settings: applied to paddy water at 2-leaf stage, visual rating after 13 to 15 d, scale 0 (no effect) to 100 (complete control)
Excerpt: as §3

SMILES	Plant response rating, Barnyardgrass (barnyardgrass [1]; 125 g ai/ha)	Plant response rating, Barnyardgrass (barnyardgrass [1]; 500 g ai/ha, approx. 10 d)	Plant response rating, Crabgrass, Large (crabgrass, large [2]; 125 g ai/ha)	Plant response rating, Crabgrass, Large (crabgrass, large [2]; 500 g ai/ha, approx. 10 d)	Plant response rating, Foxtail, Giant (foxtail, giant [3]; 125 g ai/ha)	Plant response rating, Foxtail, Giant (foxtail, giant [3]; 500 g ai/ha, approx. 10 d)	Plant response rating, Morningglory (morningglory [4]; 125 g ai/ha)	Plant response rating, Morningglory (morningglory [4]; 500 g ai/ha, approx. 10 d)	Plant response rating, Pigweed (pigweed [5]; 125 g ai/ha)	Plant response rating, Pigweed (pigweed [5]; 500 g ai/ha, approx. 10 d)	Plant response rating, Velvetleaf (velvetleaf [6]; 125 g ai/ha)	Plant response rating, Velvetleaf (velvetleaf [6]; 500 g ai/ha, approx. 10 d)	Plant response rating, Wheat (wheat [7]; 125 g ai/ha)	Plant response rating, Wheat (wheat [7]; 500 g ai/ha, approx. 10 d)	Plant response rating, Corn (corn [8]; 125 g ai/ha)	Plant response rating, Corn (corn [8]; 500 g ai/ha, approx. 10 d)	Plant response rating, Barnyardgrass (barnyardgrass [9]; 125 g ai/ha)	Plant response rating, Barnyardgrass (barnyardgrass [9]; 500 g ai/ha)	Plant response rating, Crabgrass, Large (crabgrass, large [10]; 125 g ai/ha)	Plant response rating, Crabgrass, Large (crabgrass, large [10]; 500 g ai/ha)	further results
CCCc1nc(-c2ccc(C(F)(F)F)cc2)nn1Cc1ccnc(C(F)(F)F)c1 [Compound 12]	50	80	100	100	100	100	70	90	100	100	70	70	10	30	0	20	30	50	50	90	Plant response rating, Foxtail, Giant (foxtail, giant [11]; 125 g ai/ha): 70; Plant response rating, Foxtail, Giant (foxtail, giant [11]; 500 g ai/ha): 90; Plant response rating, Morningglory (morningglory [12]; 125 g ai/ha): 70; Plant response rating, Morningglory (morningglory [12]; 500 g ai/ha): 100; Plant response rating, Pigweed (pigweed [13]; 125 g ai/ha): 100; Plant response rating, Pigweed (pigweed [13]; 500 g ai/ha): 100; Plant response rating, Velvetleaf (velvetleaf [14]; 125 g ai/ha): 70; Plant response rating, Velvetleaf (velvetleaf [14]; 500 g ai/ha): 100; Plant response rating, Wheat (wheat [15]; 125 g ai/ha): 30; Plant response rating, Wheat (wheat [15]; 500 g ai/ha): 40; Plant response rating, Corn (corn [16]; 125 g ai/ha): 20; Plant response rating, Corn (corn [16]; 500 g ai/ha): 40; Plant response rating, Rice, Flood (rice; 125 g ai/ha): 0; Plant response rating, Sedge, Umbrella, Flood (sedge, umbrella; 125 g ai/ha): 0; Plant response rating, Ducksalad, Flood (ducksalad; 125 g ai/ha): 0; Plant response rating, Barnyardgrass, Flood (barnyardgrass [17]; 125 g ai/ha): 0
CCc1nc(-c2ccc(F)cc2)nn1Cc1ccnc(C(F)(F)F)c1 [Compound 2]	0	80	100	100	80	100	0	60	100	100	0	40	0	20	0	0	20	90	70	100	Plant response rating, Foxtail, Giant (foxtail, giant [11]; 125 g ai/ha): 70; Plant response rating, Foxtail, Giant (foxtail, giant [11]; 500 g ai/ha): 90; Plant response rating, Morningglory (morningglory [12]; 125 g ai/ha): 70; Plant response rating, Morningglory (morningglory [12]; 500 g ai/ha): 90; Plant response rating, Pigweed (pigweed [13]; 125 g ai/ha): 100; Plant response rating, Pigweed (pigweed [13]; 500 g ai/ha): 100; Plant response rating, Velvetleaf (velvetleaf [14]; 125 g ai/ha): 30; Plant response rating, Velvetleaf (velvetleaf [14]; 500 g ai/ha): 100; Plant response rating, Wheat (wheat [15]; 125 g ai/ha): 0; Plant response rating, Wheat (wheat [15]; 500 g ai/ha): 70; Plant response rating, Corn (corn [16]; 125 g ai/ha): 20; Plant response rating, Corn (corn [16]; 500 g ai/ha): 90; Plant response rating, Rice, Flood (rice; 125 g ai/ha): 20; Plant response rating, Sedge, Umbrella, Flood (sedge, umbrella; 125 g ai/ha): 75; Plant response rating, Ducksalad, Flood (ducksalad; 125 g ai/ha): 30; Plant response rating, Barnyardgrass, Flood (barnyardgrass [17]; 125 g ai/ha): 0
CCn1nc(-c2ccc(F)cc2)nc1Cc1ccnc(C(F)(F)F)c1 [Compound 18]	10	60	90	100	90	100	10	40	100	100	10	70	0	0	0	0	30	60	60	90	Plant response rating, Foxtail, Giant (foxtail, giant [11]; 125 g ai/ha): 50; Plant response rating, Foxtail, Giant (foxtail, giant [11]; 500 g ai/ha): 90; Plant response rating, Morningglory (morningglory [12]; 125 g ai/ha): 50; Plant response rating, Morningglory (morningglory [12]; 500 g ai/ha): 100; Plant response rating, Pigweed (pigweed [13]; 125 g ai/ha): 100; Plant response rating, Pigweed (pigweed [13]; 500 g ai/ha): 100; Plant response rating, Velvetleaf (velvetleaf [14]; 125 g ai/ha): 30; Plant response rating, Velvetleaf (velvetleaf [14]; 500 g ai/ha): 80; Plant response rating, Wheat (wheat [15]; 125 g ai/ha): 20; Plant response rating, Wheat (wheat [15]; 500 g ai/ha): 30; Plant response rating, Corn (corn [16]; 125 g ai/ha): 30; Plant response rating, Corn (corn [16]; 500 g ai/ha): 40; Plant response rating, Rice, Flood (rice; 125 g ai/ha): 0; Plant response rating, Sedge, Umbrella, Flood (sedge, umbrella; 125 g ai/ha): 70; Plant response rating, Ducksalad, Flood (ducksalad; 125 g ai/ha): 70; Plant response rating, Barnyardgrass, Flood (barnyardgrass [17]; 125 g ai/ha): 0
CCCc1nc(-c2ccc(Cl)cc2)nn1Cc1ccnc(C(F)(F)F)c1 [Compound 22]	40	70	100	100	100	100	10	70	100	100	20	40	10	20	10	20	40	60	100	100	Plant response rating, Foxtail, Giant (foxtail, giant [11]; 125 g ai/ha): 70; Plant response rating, Foxtail, Giant (foxtail, giant [11]; 500 g ai/ha): 80; Plant response rating, Morningglory (morningglory [12]; 125 g ai/ha): 50; Plant response rating, Morningglory (morningglory [12]; 500 g ai/ha): 80; Plant response rating, Pigweed (pigweed [13]; 125 g ai/ha): 100; Plant response rating, Pigweed (pigweed [13]; 500 g ai/ha): 100; Plant response rating, Velvetleaf (velvetleaf [14]; 125 g ai/ha): 60; Plant response rating, Velvetleaf (velvetleaf [14]; 500 g ai/ha): 100; Plant response rating, Wheat (wheat [15]; 125 g ai/ha): 30; Plant response rating, Wheat (wheat [15]; 500 g ai/ha): 40; Plant response rating, Corn (corn [16]; 125 g ai/ha): 20; Plant response rating, Corn (corn [16]; 500 g ai/ha): 50; Plant response rating, Rice, Flood (rice; 250 g ai/ha): 0; Plant response rating, Sedge, Umbrella, Flood (sedge, umbrella; 250 g ai/ha): 0; Plant response rating, Ducksalad, Flood (ducksalad; 250 g ai/ha): 0; Plant response rating, Barnyardgrass, Flood (barnyardgrass [17]; 250 g ai/ha): 0
